Several values for one entry are separate records, joined by “and”; a condition that tells them apart may be missing. Equal values may be shown once.
Experiments:
mice [1] = settings: ip; cited from earlier work
mice [2] = settings: at 40 and 80 mg/kg, ip; cited from earlier work
Frings mice = settings: cited from earlier work
rats [3] = experiment: Maximal electroshock seizure (MES) test; format: in vivo; settings: ip
mice [4] = experiment: 6 Hz test; format: in vivo; settings: 32 mA, […], mice, ip
Experimental: The 6 Hz model test was carried out according to the protocol originally described by Brown et al. [54] and more recently by Barton et al. [55] and Kamiński et al. [47] and is a model of pharmacoresistant epilepsy [56].

mice [5] = experiment: Corneal kindling; format: in vivo; settings: ip, […]
rats [6] = format: in vivo; settings: ip, […]
rats [7] = format: in vivo; settings: ip
mice [8] = experiment: Rotarod test (neurotoxicity); format: in vivo; settings: mice, ip;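 further: in vivo neurotoxicity screen run within the NIH Epilepsy Therapy Screening Program (ETSP, formerly Anticonvulsant Screening Program)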
mice [9] = experiment: Formalin test (ETSP, area under the curve); format: in vivo; settings: 20.0 mg/kg, ip
rats [10] = experiment: SCMET (subcutaneous Metrazol) test; format: in vivo; settings: rats, ip, 0.50 h
slices = experiment: Propidium iodide uptake in slices; format: cell-based; settings: 100.00 uM
Source text: Anticonvulsant Screeninq Proqram
Solvent Code: DMSO Solvent Prep:
Add Compound Conc,(uM) # of slices % ofTotal Propidium lodide Uptake(mean +,/- S.E.M)

[11] = test system: organotypic hippocampal slice cultures; experiment: Neuroprotection primary screen, excitotoxin NMDA; format: cell-based; settings: NMDA 10 µM; 10 and 100 µM compound
Source text: Gompound 1 : ADD Number: ItSot+ Batct: lE- Date Started:
Compound 2 : ADD Number: Froso Batct: le Date Completed i l|26-M ar -20 1 O […]
Excitotoxin: lNmoa lnsult Duration: la Uouo Solvent:
Primary Screen Results: ffi […]
Al lruuoa rolrr,| A2lr'rrr,tOa r Olrrr,t * --.- A3 lr'rnroa r oprvr + lsaoot+ t oplrl+aesogo iopM
BZ lr.rrr,ron ropr,t , -_-_-- 83 lluoa topt',r * jffi 1 4 t oopM.€sroso 1 oolrM la+eota tooptu*aasoeo roffi […]
The 'Primary screen Experiment" is a qualitative assessment of the ability of a compound to prevent excrtotoxic cell death. organotypic hippocampal slice cultures are treated *ltn r.i-."iivr-o-"spartate (NMDA) or kainic acad (KA) to induce neuronal cell death' Propidium iodide (Pl), a membrane-imper.eant cornpouna, is included in all wells of the culture plate.
Dying cells have compromised *]lT^"Toj*::, ttr. er rnJy oin "" into the cell, intercatate with DNA and fluoresce. Thus, the intensity of the Pl fluorescence is proportional to the amount of cell death in lhe individual itices. ttippocampat slice cullures are treated with the excitotoxin alone, or *i er. inoi"ui"o above, with the excitotoxin and either one -qf]bar-a Investigalional compounds at the concentrations indicated. lf neuroprotectron occurs as a consequence of the added […]
been treated with the excitotoxin alone.
(1 picture or pasted object on this page, not shown here)

mice [12] = settings: mouse, in vivo
Experimental: They were also evaluated in the iv pentylenetetrazole (PTZ) test.
Data are expressed as the mean PTZ dose ± SEM for n = 10 that induced clonus or twitch in mice exposed to a particular dose of the test compound

rats [13] = experiment: Rotarod / TOX (neurotoxicity); settings: rats, ip, […]
Experimental: The assays were carried out within the Epilepsy Therapy Screening Program (ETSP, previously known as the Anticonvulsant Screening Program, ASP), Epilepsy Branch, National Institute of Neurological and Communicative Disorders and Stroke, National Institutes of Health in Rockville, MD, USA [23].
The obtained compounds were screened for antiseizure activity and neurotoxicity in vivo within the Epilepsy Therapy Screening Program (ETSP, previously known as the Anticonvulsant Screening Program, ASP), Epilepsy Branch, National Institute of Neurological and Communicative Disorders and Stroke, National Institutes of Health in Rockville, MD, USA [23].

Compound: NC(=O)N1c2ccccc2C=Cc2ccccc21 [Carbamazepine]
- MES ED50 (mice [1]): 7.81 (6.32–8.45) mg/kg
- 6 Hz: Max. protection (mice [2]): 75%
- Frings mice sound-induced seizures ED50 (Frings mice): 11.2 (7.73–16.2) mg/kg

Compound: CC[C@@H](CO)NCCOc1c(C)cccc1Cl [Compound 6, S-( +)-2-((2-(2-chloro-6-methylphenoxy)ethyl)amino)butan-1-ol]
- MES PI (rats [3]): 4.19
- MES TPE (rats [3]): 0.5 h
- MES ED50 (rats [3]; 0.5 h (TPE)): 10.58 (6.69–15.38) mg/kg
- 6 Hz ED50 (mice [4]): 20.4 (14.9–25.4) mg/kg
- Corneal kindling ED50 (mice [5]): 10.50 (3.67–22.09) mg/kg
- Hippocampal kindling ED50 (rats [6]): 15.81 mg/kg
- Pilocarpine-induced status epilepticus prevention: active at (rats [7]): 45 mg/kg
- Pilocarpine test: deaths (rats [7]; at 90 mg/kg): 8 deaths in 9 rats
- Rotarod TD50 (mice [8]; […]): 47.7 (32.6–68.3) mg/kg
- TOX TD50 (mice [8]; 6 Hz report of Aug-2010): 35.8 mg/kg
- Area under the curve (I phase) (mice [9]): 135.3 ± 36.4
- Area under the curve (II phase) (mice [9]): 387.0 ± 110.1
- Area under the curve, % of control (I phase) (mice [9]): 69.3% and 69.3; t14 = 1.5800%
- Area under the curve (I phase) (mice [9]; listed as 354010): 135.2
- Area under the curve (II phase) (mice [9]; listed as 354010): 387.0
- Area under the curve, % of control (II phase) (mice [9]; listed as 354010): 57.2%
- SCMET ED50 (rats [10]): > 60.0 mg/kg
- % of Total Propidium Iodide Uptake (mean +/- S.E.M) (slices): 33.1%
- Test Result (neuroprotection) [11]: No neuroprotection observed
- influence on seizure threshold (mice [12]): effect was not shown
- Rotarod TD50 (rats [13]): 44.29 (40.72–47.52) mg/kg
